# Columns and labels:
# MAT2A = target: T1, MAT2A (Homo sapiens, UniProt P31153); assay: MAT2A enzymatic activity, biochemical assay (phosphate release)
# T1 construct: purchased Pharmaron 210405‐HWR‐20210429
# Description: The test compound was prepared in dimethyl sulfoxide (DMSO). […] Then, 40 µL of enzyme dilution was added and the mixture was incubated for 120 min at room temperature. The enzymatic assay was initiated by adding 40 µL of substrate mix (a final dose of 400 µM ATP and a final dose of 200 µM L‐methionine in assay buffer), and the mixture was incubated for a further 90 min at room temperature. The liberated phosphate released by the enzyme in stoichiometric amounts by the production of SAM was measured using the Phosphate Assay Kit—PiColorLock™ (Abcam, UK). Velocity curves were fit to the standard Michaelis‐Menten equation to yield V max and K m.
# A549 = assay: Proliferation assay (CellTiter-Glo); assay type: cell-based; settings: Homo sapiens, A549, 144 h; MTAP-deleted, 6-day; read-out: IC50, anti-proliferation A549
# Description: (§1) HCT116 colon carcinoma parental (WT) cells with MTAP ^−/− isogenic clone were established by KYinno Biotechnology Co., Ltd. (Beijing, China). A549, MIA PaCa‐2, and WI‐38 cell lines were obtained from ATCC. NCI‐H838 was obtained from Cobioer Biosciences. HCT116 WT and KO MTAP cells were cultured in McCoy's 5A media containing 10% FBS. A549 cells were cultured in DMEM media containing 10% FBS. MIA PaCa‐2 cells were cultured in DMEM media containing 10% FBS and 2.5% horse serum. NCI‐H838 cells were cultured in PRMI 1640 media containing 10% FBS. WI‐38 cells were cultured in EMEM media containing 10% FBS.
# (§2) Cells were plated in 96‐well cell culture plates and allowed to attach overnight at 37°C in 5% CO2. Compounds diluted in DMSO were added to cells in a dose–response format for 6 days. The final concentration of DMSO was 0.1% in media. Cell proliferation was measured using CellTiter‐Glo Cell Viability Assay (Promega). The IC50 values were calculated using the GraphPad Prism 9. Drug combination effects were analyzed using Combenefit software.[45]
# HCT116 MTAP−/− cells = assay: Proliferation assay (CellTiter-Glo); assay type: cell-based
# Description: as §1, §2
# HCT116 WT cells = assay: Proliferation assay (CellTiter-Glo); assay type: cell-based; settings: Homo sapiens, HCT-116, 144 h; 6-day treatment; read-out: IC50, anti-proliferation HCT116 WT
# Description: as §1, §2
# MIA PaCa-2 = assay: Proliferation assay (CellTiter-Glo); assay type: cell-based; settings: Homo sapiens, MIA PaCa-2, 144 h; MTAP-deleted, 6-day; read-out: IC50, anti-proliferation MIA PaCa-2
# Description: as §1, §2
# NCI-H838 = assay: Proliferation assay (CellTiter-Glo); assay type: cell-based; settings: Homo sapiens, NCI-H838, 144 h; MTAP-deleted, 6-day; read-out: IC50, anti-proliferation NCI-H838
# Description: as §1, §2
# [1] = system: WI-38 (human fetal lung fibroblast cells); assay: Proliferation assay (CellTiter-Glo); assay type: cell-based; settings: MTAP WT; read-out: IC50, anti-proliferation WI-38
# Description: as §1, §2
# [2] = Plasma bilirubin in mice after oral treatment; assay type: in vivo; settings: SCR-7952 1.0 mg/kg, 14 days oral treatment, 2 h after final dose
# SDMA = assay: Tumor SDMA levels in combination xenograft study; assay type: in vivo, mice; settings: SCR-7952 0.3 mg/kg alone
# [3] = system: KP4 (MTAP-deleted pancreatic cancer cell line); assay: Combination proliferation assay; assay type: cell-based; settings: KP4 cells, 8 days
# Description: as §2, with “Compounds diluted in DMSO were added to cells in a dose–response format for 6 days.” left out
# HTR3A = HTR3A (Homo sapiens, UniProt P46098); assay: Mini-profiling panel, ion channel; assay type: cell-based
# HTR3A, sequence (P46098 24-478, species assumed): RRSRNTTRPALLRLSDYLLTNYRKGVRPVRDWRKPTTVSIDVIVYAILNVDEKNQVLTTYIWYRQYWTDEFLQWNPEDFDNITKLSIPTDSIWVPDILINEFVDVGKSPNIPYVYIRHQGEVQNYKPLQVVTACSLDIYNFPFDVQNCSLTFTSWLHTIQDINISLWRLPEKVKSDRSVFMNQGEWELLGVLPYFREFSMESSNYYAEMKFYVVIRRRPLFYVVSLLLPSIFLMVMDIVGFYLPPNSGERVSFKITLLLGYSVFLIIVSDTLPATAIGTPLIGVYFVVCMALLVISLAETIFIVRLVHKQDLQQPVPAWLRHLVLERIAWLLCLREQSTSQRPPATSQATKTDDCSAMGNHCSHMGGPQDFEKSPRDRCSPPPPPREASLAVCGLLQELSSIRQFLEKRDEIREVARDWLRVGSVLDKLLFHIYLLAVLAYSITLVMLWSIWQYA
# Description: (§3) Further insight into selectivity was evaluated in a functional panel of 47 representative targets closely related to human life activities, including G protein‐coupled receptors, transporters, ion channels, kinases, nuclear hormone receptor targets, and nonkinase enzymes (Table S3).
# KvLQT1/mink = KvLQT1/mink (Homo sapiens, UniProt P51787); assay: Mini-profiling panel, ion channel; assay type: cell-based
# KvLQT1/mink, sequence (P51787 whole entry): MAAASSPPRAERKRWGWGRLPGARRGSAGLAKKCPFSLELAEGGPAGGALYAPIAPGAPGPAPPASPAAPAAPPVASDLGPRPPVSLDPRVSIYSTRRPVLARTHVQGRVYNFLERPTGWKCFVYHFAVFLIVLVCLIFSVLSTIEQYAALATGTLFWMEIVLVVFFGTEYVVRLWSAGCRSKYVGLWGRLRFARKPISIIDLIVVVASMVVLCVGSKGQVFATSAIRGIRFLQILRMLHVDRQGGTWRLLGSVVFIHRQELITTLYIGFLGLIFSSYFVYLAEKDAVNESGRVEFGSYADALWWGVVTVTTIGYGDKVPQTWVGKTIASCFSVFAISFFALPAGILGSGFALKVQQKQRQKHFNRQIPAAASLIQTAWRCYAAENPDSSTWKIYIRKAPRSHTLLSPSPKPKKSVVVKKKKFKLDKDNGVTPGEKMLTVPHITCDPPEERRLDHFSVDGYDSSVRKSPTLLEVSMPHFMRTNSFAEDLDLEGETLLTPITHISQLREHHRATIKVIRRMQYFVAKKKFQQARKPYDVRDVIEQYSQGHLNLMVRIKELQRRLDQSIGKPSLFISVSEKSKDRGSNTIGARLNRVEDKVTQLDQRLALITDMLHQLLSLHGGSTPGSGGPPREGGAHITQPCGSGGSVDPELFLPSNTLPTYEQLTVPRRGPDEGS
# Description: as §3
# NAV1.5 = NAV1.5 (Homo sapiens, UniProt Q14524); assay: Mini-profiling panel, ion channel; assay type: cell-based
# Description: as §3
# NMDAR (1A/2B) = NMDAR (1A/2B) (Homo sapiens, UniProt Q05586+Q13224); assay: Mini-profiling panel, ion channel; assay type: cell-based
# NMDAR (1A/2B), sequence (Q13224 27-1484, other chains not shown): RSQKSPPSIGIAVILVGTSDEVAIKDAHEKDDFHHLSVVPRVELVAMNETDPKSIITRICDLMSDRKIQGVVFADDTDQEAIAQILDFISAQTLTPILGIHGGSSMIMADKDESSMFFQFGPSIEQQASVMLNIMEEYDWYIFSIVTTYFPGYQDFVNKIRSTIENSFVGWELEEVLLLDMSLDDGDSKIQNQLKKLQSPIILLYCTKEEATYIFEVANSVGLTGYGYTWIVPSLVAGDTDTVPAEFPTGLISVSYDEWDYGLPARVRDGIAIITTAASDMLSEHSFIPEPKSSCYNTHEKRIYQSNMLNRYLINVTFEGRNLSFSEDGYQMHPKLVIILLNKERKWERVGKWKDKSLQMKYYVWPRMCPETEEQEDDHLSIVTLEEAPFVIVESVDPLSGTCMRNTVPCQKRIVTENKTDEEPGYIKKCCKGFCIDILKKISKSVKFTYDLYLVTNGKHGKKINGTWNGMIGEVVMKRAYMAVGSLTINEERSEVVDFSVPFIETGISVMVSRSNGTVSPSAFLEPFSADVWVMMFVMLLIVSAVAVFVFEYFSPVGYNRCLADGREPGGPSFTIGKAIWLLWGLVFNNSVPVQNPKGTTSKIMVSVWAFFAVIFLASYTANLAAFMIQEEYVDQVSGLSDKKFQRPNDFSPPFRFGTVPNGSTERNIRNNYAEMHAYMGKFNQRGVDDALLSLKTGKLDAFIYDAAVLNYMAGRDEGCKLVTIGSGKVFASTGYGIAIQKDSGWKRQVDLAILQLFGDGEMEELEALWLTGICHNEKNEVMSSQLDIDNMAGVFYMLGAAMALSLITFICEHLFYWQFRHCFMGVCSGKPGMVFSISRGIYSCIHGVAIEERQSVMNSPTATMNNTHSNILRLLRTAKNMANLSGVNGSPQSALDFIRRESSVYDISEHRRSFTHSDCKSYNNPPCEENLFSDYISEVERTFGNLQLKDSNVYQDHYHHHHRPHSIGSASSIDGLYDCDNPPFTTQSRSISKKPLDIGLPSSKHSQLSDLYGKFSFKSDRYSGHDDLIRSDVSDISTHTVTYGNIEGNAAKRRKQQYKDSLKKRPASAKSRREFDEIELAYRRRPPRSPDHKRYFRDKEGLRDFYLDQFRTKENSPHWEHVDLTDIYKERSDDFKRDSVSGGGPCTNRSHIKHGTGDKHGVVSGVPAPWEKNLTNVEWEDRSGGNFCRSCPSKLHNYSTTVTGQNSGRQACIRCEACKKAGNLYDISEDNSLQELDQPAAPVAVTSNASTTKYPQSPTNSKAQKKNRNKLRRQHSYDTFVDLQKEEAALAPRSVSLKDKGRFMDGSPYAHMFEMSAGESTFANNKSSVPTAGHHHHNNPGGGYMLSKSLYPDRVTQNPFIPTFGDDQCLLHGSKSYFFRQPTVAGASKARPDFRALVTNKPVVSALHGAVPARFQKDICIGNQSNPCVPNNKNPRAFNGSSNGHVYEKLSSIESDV
# Description: as §3
# nAChR(a4/b2) = nAChR(a4/b2) (Homo sapiens, UniProt P17787+P43681); assay: Mini-profiling panel, ion channel; assay type: cell-based
# nAChR(a4/b2), sequence (P43681 29-627 limits assumed): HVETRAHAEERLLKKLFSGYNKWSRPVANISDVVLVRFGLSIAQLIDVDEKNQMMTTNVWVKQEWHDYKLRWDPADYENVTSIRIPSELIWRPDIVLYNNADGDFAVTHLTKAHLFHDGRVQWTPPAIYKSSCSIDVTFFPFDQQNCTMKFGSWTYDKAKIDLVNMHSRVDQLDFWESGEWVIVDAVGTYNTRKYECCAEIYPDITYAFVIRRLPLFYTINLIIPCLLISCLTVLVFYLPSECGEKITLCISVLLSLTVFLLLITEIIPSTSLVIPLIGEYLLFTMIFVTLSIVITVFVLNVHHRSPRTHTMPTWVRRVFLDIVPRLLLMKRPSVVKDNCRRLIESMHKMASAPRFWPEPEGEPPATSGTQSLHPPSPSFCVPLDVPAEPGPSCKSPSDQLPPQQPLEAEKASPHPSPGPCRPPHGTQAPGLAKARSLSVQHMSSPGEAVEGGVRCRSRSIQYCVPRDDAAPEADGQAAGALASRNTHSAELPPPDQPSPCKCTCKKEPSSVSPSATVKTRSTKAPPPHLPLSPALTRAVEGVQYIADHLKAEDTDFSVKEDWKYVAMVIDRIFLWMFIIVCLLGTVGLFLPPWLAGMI
# nAChR(a4/b2), sequence (P17787 26-502): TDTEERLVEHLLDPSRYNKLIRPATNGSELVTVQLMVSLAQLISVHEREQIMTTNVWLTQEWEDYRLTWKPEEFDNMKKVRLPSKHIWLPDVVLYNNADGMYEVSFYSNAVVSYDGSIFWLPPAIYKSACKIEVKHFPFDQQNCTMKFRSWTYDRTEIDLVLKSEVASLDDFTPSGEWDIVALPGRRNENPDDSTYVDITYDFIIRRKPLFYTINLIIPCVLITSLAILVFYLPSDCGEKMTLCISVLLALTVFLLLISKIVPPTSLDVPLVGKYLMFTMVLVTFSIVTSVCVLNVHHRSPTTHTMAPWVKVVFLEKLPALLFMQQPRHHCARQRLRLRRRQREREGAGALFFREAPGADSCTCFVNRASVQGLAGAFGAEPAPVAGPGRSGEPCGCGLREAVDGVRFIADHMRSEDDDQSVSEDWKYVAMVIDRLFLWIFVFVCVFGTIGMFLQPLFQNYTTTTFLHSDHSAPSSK
# Description: as §3
# COX1 = COX1 (Homo sapiens, UniProt P23219); assay: Mini-profiling panel, non-kinase enzyme; assay type: biochemical; settings: Non-Kinase Enzymes; read-out: COX1 Inhibitor IC50
# COX1, sequence (P23219 24-599): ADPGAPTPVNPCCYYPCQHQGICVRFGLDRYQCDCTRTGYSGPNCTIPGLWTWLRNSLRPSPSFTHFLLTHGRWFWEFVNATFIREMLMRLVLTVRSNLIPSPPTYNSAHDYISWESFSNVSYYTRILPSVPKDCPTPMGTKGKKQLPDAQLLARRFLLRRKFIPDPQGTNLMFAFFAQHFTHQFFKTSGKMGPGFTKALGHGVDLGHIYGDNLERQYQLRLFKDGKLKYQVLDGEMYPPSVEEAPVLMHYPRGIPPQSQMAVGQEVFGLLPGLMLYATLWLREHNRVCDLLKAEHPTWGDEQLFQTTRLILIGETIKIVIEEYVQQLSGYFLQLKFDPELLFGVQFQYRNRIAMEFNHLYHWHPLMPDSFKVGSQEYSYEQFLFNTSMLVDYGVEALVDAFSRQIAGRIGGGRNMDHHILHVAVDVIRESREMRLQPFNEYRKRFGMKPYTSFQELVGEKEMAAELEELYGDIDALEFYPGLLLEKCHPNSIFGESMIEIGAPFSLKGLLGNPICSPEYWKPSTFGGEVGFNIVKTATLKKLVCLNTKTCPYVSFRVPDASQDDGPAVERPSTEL
# CAV1.2 = CAV1.2 (Homo sapiens, UniProt Q13936); assay: cell-based
# T1 sequence (P31153 whole entry): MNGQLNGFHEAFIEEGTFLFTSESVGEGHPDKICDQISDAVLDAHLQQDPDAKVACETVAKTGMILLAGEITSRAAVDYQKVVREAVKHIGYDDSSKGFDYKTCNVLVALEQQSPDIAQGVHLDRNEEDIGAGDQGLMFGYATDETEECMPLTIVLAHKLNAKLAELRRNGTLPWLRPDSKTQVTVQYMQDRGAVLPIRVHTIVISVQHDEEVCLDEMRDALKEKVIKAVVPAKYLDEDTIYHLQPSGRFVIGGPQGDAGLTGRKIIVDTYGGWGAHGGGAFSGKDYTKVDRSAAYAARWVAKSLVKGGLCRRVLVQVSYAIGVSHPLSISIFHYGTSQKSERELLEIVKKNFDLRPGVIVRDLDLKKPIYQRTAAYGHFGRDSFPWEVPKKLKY
smiles,measurement,setting,value
"Cn1cnc2c(=O)n(-c3cccnc3C3CC3)c3cc(Cl)ccc3c21 [SCR‐7952, 7‐chloro‐5‐(2‐cyclopropylpyridin‐3‐yl)‐1‐methyl‐1,5‐dihydro‐4H‐imidazo[4,5‐c]quinolin‐4‐one]",fold more potent than AG-270 on MAT2A enzymatic activity,MAT2A,3.7 fold
same,IC50,"MAT2A; biochemical assay, read-out: IC50, MAT2A enzyme",18.7 nM
same,Ki,"MAT2A; in the presence of substrate methionine, Michaelis–Menten approach",14.5 nM
same,α value,MAT2A; noncompetitive inhibition for methionine,1.193
same,IC50,A549,123 nM
same,fold difference of antiproliferative effect of SCR-7952 and AG-270,"HCT116 MTAP−/− cells; HCT116 MTAP−/− cells, 34.4 vs. 300.4 nM",8.7 fold
same,IC50,"HCT116 MTAP−/− cells; Homo sapiens, HCT-116, 144 h, 6-day treatment, read-out: IC50, anti-proliferation HCT116 MTAP−/−",34.4 nM
same,IC50,HCT116 WT cells,488 nM
same,IC50,MIA PaCa-2,19.7 nM
same,IC50,NCI-H838,4.3 nM
same,IC50,[1],4310 nM
same,effect on mice plasma levels of bilirubin,[2],no significant effect
same,tumor SDMA levels,SDMA,remarkable reduction
same,interaction in combination with JNJ-64619178 on KP4,[3],synergistic effect was also observed
same,EC50,HTR3A,> 10000 nM
same,IC50,HTR3A,> 10000 nM
same,EC50,KvLQT1/mink,> 10000 nM
same,IC50,KvLQT1/mink,> 10000 nM
same,IC50,NAV1.5,> 10000 nM
same,EC50,NMDAR (1A/2B),> 10000 nM
same,IC50,NMDAR (1A/2B),> 10000 nM
same,EC50,nAChR(a4/b2),> 10000 nM
same,IC50,nAChR(a4/b2),> 10000 nM
same,IC50,COX1,> 10000 nM
same,IC50,CAV1.2,> 10000 nM

# Reference: PMC11413503, “SCR‐7952, a highly selective MAT2A inhibitor, demonstrates synergistic antitumor activities in combination with the S‐adenosylmethionine‐competitive or the methylthioadenosine‐cooperative protein arginine methyltransferase 5 inhibitors in methylthioadenosine phosphorylase‐deleted tumors” (MedComm, 2024)
